Reference: patent publication US20070203085A1, “Methods For Interfering With Fibrosis” (priority 2004, published 2007)

Tests used:
sgk1+/+ and sgk1−/− mice [1] = test: DOCA/high salt treatment of sgk1+/+ and sgk1−/− mice: blood pressure, plasma electrolytes, salt intake; assay type: in vivo
Method: To explore whether SGK1 may be involved in the signalling of cardiac fibrosis a pellet continuously releasing DOCA (2.4 mg/day) was implanted into both sgk1+/+ and sgk1−/− mice along with 1% NaCl in the drinking water.
Mice deficient in SGK1 (sgk1−/−) were generated as previously described 9. Wild type (sgk1+/+) and SGK1 knockout (sgk1−/−) mice were implanted with a 21 day release 50 mg DOCA pellet (Innovative Research of America, Sarasota, Fla.) in the neck area (28) during anesthesia (intraperitoneal medetomidin 0.5 mg/kg+midazolam 5 mg/kg+fentanyl 0.05 mg/kg which was reversed by subcutaneous atipamezol 2.5 mg/kg+flumazenil 0.5 mg/kg+naloxon 1.2 mg/kg). One day before implantation of DOCA pellets, sgk1−/− and sgk1+/+ mice were weighed and placed individually in metabolic cages (Tecniplast Hohenpeissenberg, Germany) for basal 24 hour urine collection. Mice had free access to a standard mouse diet (Altromin, Heidenau, Germany) and tap water and/or 1% or 2% NaCl. The inner wall of the metabolic cages was siliconized and urine was collected under water-saturated oil. Systolic arterial blood pressure was determined by the tail-cuff method before and on days 1, 2, 4, 6, 10 and 14 of DOCA/1% NaCl treatment 29. On day 18 of DOCA/high salt treatment, 24 hour urine and body weight were again determined, animals anesthetized (intraperitoneal ketamine and xylazine) and 200 μl of blood withdrawn into heparinized capillaries by puncturing the retro-orbital plexus. Plasma and urinary concentrations of Na+ and K+ were measured by flame photometer (ELEX 6361, Eppendorf, Germany), Cl— concentrations by electrometric titration (Chloridometer 6610, Eppendorf, Germany), Ca2+, phosphorus and creatinine were assessed by commercial diagnostic kits (Sigma, Munich, Germany).

sgk1+/+ and sgk1−/− mice [2] = test: Cardiac fibrosis by microscopy (H&E and Masson's trichrome) after DOCA/high salt; assay type: in vivo; settings: 18 day DOCA/high salt
Method: Hearts from untreated or DOCA/high salt treated (18 days) sgk1+/+ and sgk1−/− mice were quickly removed under anesthesia, the weight determined and fixed in 4% paraformaldehyde/0.1 M sodium phosphate buffer (pH 7.2) overnight and embedded in paraffin. Dewaxed 5 μm thick heart muscle sections were stained with H&E and Masson's trichrome (30). Stained paraffin sections were analysed on a Zeiss Axioplan microscope (Zeiss, Jena, Germany). Areas were measured on digitized images using an Axiocam video camera (Zeiss, Jena, Germany) using the manufacture's software (Axiovision, Zeiss, Jena, Germany). Total tissue areas were measured with a 4× objective; fibrotic areas were identified and quantified using a 20× objective. The degree of fibrosis was then calculated as a percentage of total tissue area.

sgk1+/+ and sgk1−/− mice [3] = test: Cardiac gene transcription after DOCA/high salt (microarray analysis, real-time PCR); assay type: in vivo
Method: Total RNA was isolated from hearts obtained from untreated or DOCA/high salt (48 h) treated sgk1+/+ and sgk1−/− mice using the Qiagen RNeasy Fibrous Tissue Midi Kit according to the manufacture's instructions (Qiagen, Hilden, Germany). Using total RNA from hearts of DOCA/high salt or sham-treated sgk1−/− and sgk1+/+ mice, second-strand syntheses were generated using a commercially available kit (Invitrogen Life Technologies, Rockville, Md.) and an oligo d(T)24 T7 primer. cRNA was generated using biotin-labelled CTP and UTP by in vitro transcription using a T7 promoter-coupled double stranded cDNA as template and the T7 RNA transcript labelling kit (ENZO Diagnostics, Farmingdale, N.Y.). The cRNA was fragmented and hybridised to the mouse genome MOE430A oligonucleotide array chip (Affymetrix, Santa Clara, Calif.). The array chips were then stained using phycoerythrin conjugated streptavidin (Molecular Probes, Invitrogen Life Technologies, Rockville, Md.) and the fluorescence intensities were determined using a laser confocal scanner (Agilent, Affymetrix, Santa Clara, Calif.). The intensity of the scanned images was analysed using Microarray Suite Version 5 (Affymetrix, Santa Clara, Calif.). Global scaling was applied to all arrays such that the mean intensity of each array was equivalent. In global scaling, the raw signal value of each probe cell was multiplied by a scaling factor.

CTGF [4] = test: Cardiac CTGF expression by Western blotting after DOCA/salt; assay type: in vivo, mice; settings: for CTGF expression in cardiac tissue (Western blot): DOCA/high salt for 18 days
Method: Whole hearts from untreated and DOCA/high salt treated (18 days) sgk1+/+ and sgk1−/− mice were removed and immediately frozen in liquid nitrogen, the tissue was then homogenised using a glass homogeniser in lysis buffer containing 50 mM Tris-HCl, pH 7.4, 100 mM NaCl, 1 mM EDTA, 1 mM EGTA, 50 mM sodium fluoride, 5 mM sodium pyrophosphate, 1 mM sodium orthovanadate, 1% Triton X-100, 1% sodium deoxycholate, 1% sodium doecyl sulphate and protease cocktail inhibitor (Roche, Basel, Switzerland), the homogenates were centrifuged at 10,000 rpm, 4° C. for 15 min, the supernatant was removed and used for Western blotting. sgk1+/+ and sgk1−/− mouse lung fibroblasts in 60 mm culture dishes were serum deprived for 18 h prior to the addition of DOCA (10 μM), 24 h later the cells were lysed. Whole cell lysates (50 μg) and heart homogenates (70 μg) were separated by SDS-page (10% Tris-Glycine), transferred to nitrocellulose membranes, blocked for 1 h in blocking buffer (5% fat-free milk in PBS containing 0.1% Tween) and incubated overnight at 4° C. with a goat polyclonal CTGF primary antibody (diluted 1:400 in blocking buffer, Santa Cruz, Heidelberg, Germany). After incubation with a HRP-conjugated anti-goat secondary antibody (Santa Cruz, Heidelberg, Germany) visualization with ECL was performed according to manufacture's instructions (Amersham, Freiburg, Germany). Membranes were also probed with a primary β-tubulin (Santa Cruz, Heidelberg, Germany) antibody as a loading control. Densitometric analysis of CTGF was performed using Scion Image (Scion, Md., USA) and normalized using β-tubulin.

CTGF [5] = test: CTGF expression in primary mouse lung fibroblasts after DOCA stimulation (Western blot); assay type: cell-based; settings: DOCA 10 μM, 24 h; sgk1+/+ and sgk1−/− cells
Method: To harvest lung fibroblasts from sgk1+/+ and sgk1−/− mice (8-14 weeks old), whole lungs were removed and transferred to 90 mm cell culture dishes containing 2 ml of DMEM supplemented with 10% fetal calf serum, 100 U/ml Penicillin, […] Streptomycin and 2 mM L-glutamine (Gibco-Invitrogen, Karlsruhe, Germany). The tissue was cut into small pieces and cultured under standard cell culture conditions (37° C., 5% CO2). Cell growth was observed 2-4 days after initial plating. Fibroblasts were identified by positive staining for fibronectin and used in experiments between passages 2-6. Increase of SGK1 mRNA by DOCA treatment and absence of SGK1 in sgk1−/− mice lung fibroblasts was confirmed by realtime PCR (data not shown). […]

## CC(=O)OCC(=O)[C@H]1CC[C@H]2[C@@H]3CCC4=CC(=O)CC[C@]4(C)[C@H]3CC[C@]12C [DOCA]
sgk1+/+ and sgk1−/− mice [1]; DOCA/high salt for 18 days, sgk1+/+ vs sgk1−/− mice
  hypokalemia: significant hypokalemia in sgk1+/+ but not in sgk1−/− mice
sgk1+/+ and sgk1−/− mice [1]; sgk1+/+ mice, after implanting the DOCA pellet
  salt intake from bottle 2 (1% NaCl): pronounced increase in salt intake
sgk1+/+ and sgk1−/− mice [1]; sgk1−/− and sgk1+/+ mice, DOCA/high salt for 18 days
  blood pressure: statistically significant increases in blood pressure
sgk1+/+ and sgk1−/− mice [2]; sgk1+/+ mice
  fibrosis of the heart: marked fibrosis of the heart
sgk1+/+ and sgk1−/− mice [2]; sgk1−/− mice
  fibrosis of the heart: without any appreciable effect on the heart
sgk1+/+ and sgk1−/− mice [3]; heart, sgk1+/+ mice, 48 h DOCA/high salt vs untreated sgk1+/+ mice, real-time PCR
  fold increase in SGK1/GAPDH copy number (SGK1 transcription): 2.10±0.14 fold
sgk1+/+ and sgk1−/− mice [3]; sgk1+/+ mice, 48 h DOCA/high salt
  induction of fibrosis genes (procollagens, integrin α5, proteoglycan 4, CTGF), microarray: induced several genes involved in the pathogenesis of fibrosis
sgk1+/+ and sgk1−/− mice [3]; sgk1−/− mice, DOCA/high salt
  induction of fibrosis genes (procollagens, integrin α5, proteoglycan 4, CTGF), microarray: none of these genes were induced
CTGF [4]; sgk1+/+ mice, DOCA/1% salt (untreated: 0.9±0.2), P<0.01
  cardiac CTGF expression, CTGF/β-tubulin densitometric analysis: 4.7±1.0 arbitrary units
CTGF [4]; sgk1+/+ mice
  CTGF expression in cardiac tissue (Western blot): markedly upregulated CTGF expression
CTGF [4]; sgk1−/− mice, DOCA/high salt (untreated: 1.5±1.0)
  cardiac CTGF expression, CTGF/β-tubulin densitometric analysis: 1.7±0.7 arbitrary units
CTGF [4]; sgk1−/− mice
  CTGF expression in cardiac tissue (Western blot): unaltered
CTGF [5]
  CTGF levels in primary mouse lung fibroblasts: elevated CTGF levels only in the sgk1+/+ cells
